A value given as a limit tells only on which side of the number the result lay.

The first test concerns KM12-luc cells. In words: Cell proliferation and growth inhibition assay (CCK-8) in KM12-luc. The format is cell-based. Particulars: KM12-Luc, 72 h, KM12-luc cells, treated with test compounds for 72 hrs, CCK-8 viability; read-out: NTRK IC50 in KM12-luc. In outline:
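IC50 values were fitted by sigmoidal dose-response non-linear regression of CCK-8 OD450 absorbance after 1-4 hrs with reagent. Culture media were IMDM for MV-4-11, RPMI 1640 for H1975 and DMEM for KM12-luc, each with 10% FBS at 37 °C, 5% CO2.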
As for `COc1cccc2c(-c3nc(Nc4ccc(N(CCN(C)C)C(C)=O)c(NC(C)=O)c4)ncc3C(F)(F)F)cn(C)c12` [Compound 386, N-(2-acetamido-4-((4-(7-methoxy-1-methyl-1H-indol-3-yl)-5-(trifluoromethyl)pyrimidin-2-yl)amino)phenyl)-N-(2-(dimethylamino)ethyl)acetamide], the 50% inhibitory concentration (IC50) (as a rule, the concentration that gives 50% inhibition) is 0.0439 µM.

As to `CCN(C(=O)CN(C)C)c1ccc(Nc2ncc(Cl)c(-c3cn(C)c4ccccc34)n2)cc1NC(C)=O` [Compound 405, N-(2-acetamido-4-((5-chloro-4-(1-methyl-1H-indol-3-yl)pyrimidin-2-yl)amino)phenyl)-2-(dimethylamino)-N-ethylacetamide], the half-inhibitory concentration (IC50) is greater than 1 µM.

Take `CC(=O)Nc1cc(Nc2ncc(Cl)c(-c3c[nH]c4ccccc34)n2)ccc1NC(=O)CN(C)C` [Compound 393, N-(2-acetamido-4-((5-chloro-4-(1H-indol-3-yl)pyrimidin-2-yl)amino)phenyl)-2-(dimethylamino)acetamide]: the 50% inhibitory concentration (IC50) was determined as 0.0231 µM.

For `CC(=O)Nc1cc(Nc2ncc(C(F)(F)F)c(-c3cn(C)c4c(C)cccc34)n2)ccc1OCCN(C)C` [Compound 372, N-(5-((4-(1,7-dimethyl-1H-indol-3-yl)-5-(trifluoromethyl)pyrimidin-2-yl)amino)-2-(2-(dimethylamino)ethoxy)phenyl)acetamide], the IC50 worked out at 0.0302 µM.

For the compound `CC(=O)Nc1cc(Nc2ncc(C(F)(F)F)c(-c3cn(C)c4ccccc34)n2)ccc1N(CCN(C)C)C(C)=O` [Compound 314a, N-(2-acetamido-4-((4-(1-methyl-1H-indol-3-yl)-5-(trifluoromethyl)pyrimidin-2-yl)amino)phenyl)-N-(2-(dimethylamino)ethyl)acetamide], the IC50 stood at 0.0632 µM.

For the compound `CC(=O)Nc1cc(Nc2ncc(Cl)c(-c3cn(C)c4ccccc34)n2)ccc1N(C)CCN(C)C` [Compound 395, N-(5-((5-chloro-4-(1-methyl-1H-indol-3-yl)pyrimidin-2-yl)amino)-2-((2-(dimethylamino)ethyl)(methyl)amino)phenyl)acetamide], the IC50 amounted to 0.0773 µM.

As to `C=CC(=O)Nc1cc(Nc2nc(-c3cn(C)c4ccccc34)c3cc[nH]c3n2)ccc1N(CC)CCN(C)C` [Compound 212a, N-(2-((2-(dimethylamino)ethyl)(ethyl)amino)-5-((4-(1-methyl-1H-indol-3-yl)-7H-pyrrolo[2,3-d]pyrimidin-2-yl)amino)phenyl)acrylamide], the IC50 worked out at 0.0627 µM.

On to `CN(C)CCN(C)c1ccc(C(=O)Nc2c[nH]c3ccc(Nc4cc(F)cc(F)c4)cc23)c(NC2CCOCC2)c1` [Compound 500, N-(5-((3,5-difluorophenyl)amino)-1H-indol-3-yl)-4-((2-(dimethylamino)ethyl)(methyl)amino)-2-((tetrahydro-2H-pyran-4-yl)amino)benzamide], for which the IC50 was found to be 3.57 µM.

As to `CN(C)CCN(C)c1ccc(Nc2nc(-c3cn(C)c4ccccc34)c3cc[nH]c3n2)cc1N(C)C` [Compound 207, N^1-(2-(dimethylamino)ethyl)-N^1,N^2,N^2-trimethyl-N^4-(4-(1-methyl-1H-indol-3-yl)-7H-pyrrolo[2,3-d]pyrimidin-2-yl)benzene-1,2,4-triamine], the half-inhibitory concentration (IC50) was 0.348 µM.

For the compound `CC(=O)Nc1cc(Nc2nc(-c3cn(C)c4cc(F)c(F)cc34)c3cc[nH]c3n2)ccc1N(C)CCN(C)C` [Compound 237, N-(5-((4-(5,6-difluoro-1-methyl-1H-indol-3-yl)-7H-pyrrolo[2,3-d]pyrimidin-2-yl)amino)-2-((2-(dimethylamino)ethyl)(methyl)amino)phenyl)acetamide], the half-inhibitory concentration (IC50) was 0.537 µM.

As for `CN(C)[C@H]1CCN(c2ccc(Nc3ncc(Cl)c(-c4cn(C)c5c(F)cccc45)n3)cc2N)C1` [Compound S-420, (S)—N^1-(5-chloro-4-(7-fluoro-1-methyl-1H-indol-3-yl)pyrimidin-2-yl)-4-(3-(dimethylamino)pyrrolidin-1-yl)benzene-1,3-diamine], the IC50 came to 0.261 µM.

Take `COc1cnc(Nc2ccc(N(CCN(C)C)C(C)=O)c(NC(C)=O)c2)nc1-c1c[nH]c2c(F)cccc12` [Compound 278, N-(2-acetamido-4-((4-(7-fluoro-1H-indol-3-yl)-5-methoxypyrimidin-2-yl)amino)phenyl)-N-(2-(dimethylamino)ethyl)acetamide]: the IC50 is 0.0171 µM.

With `CCC(=O)Nc1cccc(Nc2ncc(Cl)c(Nc3ccc(N4CCN(C)CC4)cc3OC)n2)c1` [Compound 161, N-(3-((5-chloro-4-((2-methoxy-4-(4-methylpiperazin-1-yl)phenyl)amino)pyrimidin-2-yl)amino)phenyl)propionamide], the half-maximal inhibitory concentration (IC50) was determined as 0.146 µM.

As for `COc1nc(Nc2ccc(N(C)CCN(C)C)c(NC(C)=O)c2)nc(-c2cn(C)c3ccccc23)c1OC` [Compound 291a, N-(5-((4,5-dimethoxy-6-(1-methyl-1H-indol-3-yl)pyrimidin-2-yl)amino)-2-((2-(dimethylamino)ethyl) (methyl)amino)phenyl)acetamide], the half-inhibitory concentration (IC50) is 8.67 µM.

For `CCN(CCN(C)C)c1c(F)cc(Nc2nc(-c3cn(C)c4ccccc34)c3cc[nH]c3n2)cc1NC(C)=O` [Compound 195a, N-(2-((2-(dimethylamino)ethyl)(ethyl)amino)-3-fluoro-5-((4-(1-methyl-1H-indol-3-yl)-7H-pyrrolo[2,3-d]pyrimidin-2-yl)amino)phenyl)acetamide], the concentration for half-maximal inhibition (IC50) was found to be 0.153 µM.

As for `CC(=O)Nc1cc(Nc2ncc(F)c(-c3c[nH]c4ccccc34)n2)ccc1N(C)CCN(C)C` [Compound 259a, N-(2-((2-(dimethylamino)ethyl)(methyl)amino)-5-((5-fluoro-4-(1H-indol-3-yl)pyrimidin-2-yl)amino)phenyl)acetamide], the IC50 is 0.0657 µM.

Take `COc1cnc(Nc2ccc(OCCN(C)C)c(NC(C)=O)c2)nc1-c1cn(C)c2c(C)cccc12` [Compound 285, N-(5-((4-(1,7-dimethyl-1H-indol-3-yl)-5-methoxypyrimidin-2-yl)amino)-2-(2-(dimethylamino)ethoxy)phenyl)acetamide]: the IC50 was 0.0996 µM.

Regarding `CC(=O)Nc1cc(Nc2nc3c(c(-c4cn(C)c5ccccc45)n2)COCC3)ccc1N(C)CCN(C)C` [Compound 257a, N-(2-((2-(dimethylamino)ethyl)(methyl)amino)-5-((4-(1-methyl-1H-indol-3-yl)-7,8-dihydro-5H-pyrano[4,3-d]pyrimidin-2-yl)amino)phenyl)acetamide], the 50% inhibitory concentration (IC50) is greater than 10 µM.

Regarding `CCN(C(=O)CN(C)C)c1ccc(Nc2ncc(Cl)c(-c3c[nH]c4ccccc34)n2)cc1N` [Compound 448, N-(2-amino-4-((5-chloro-4-(1H-indol-3-yl)pyrimidin-2-yl)amino)phenyl)-2-(dimethylamino)-N-ethylacetamide], the IC50 was greater than 1 µM.

Turning to `CC(=O)Nc1cc(Nc2ncc(Cl)c(-c3cn(C)c4c(F)cccc34)n2)ccc1N(C)CCN(C)C` [Compound 418, N-(5-((5-chloro-4-(7-fluoro-1-methyl-1H-indol-3-yl)pyrimidin-2-yl)amino)-2-((2-(dimethylamino)ethyl)(methyl)amino)phenyl)acetamide], the 50% inhibitory concentration (IC50) was found to be 0.0792 µM.

With `CN(C)CCN(C)c1ccc(Nc2ncc(C(F)(F)F)c(-c3cn(C)c4c(F)cccc34)n2)cc1N` [Compound 347, N^1-(2-(dimethylamino)ethyl)-N^4-(4-(7-fluoro-1-methyl-1H-indol-3-yl)-5-(trifluoromethyl)pyrimidin-2-yl)-N^1-methylbenzene-1,2,4-triamine], the IC50 amounted to 0.114 µM.

On to `CC(=O)Nc1cc(Nc2nc(-c3cn(C)c4ccccc34)c3c(F)c[nH]c3n2)ccc1N(C)CCN(C)C` [Compound 253, N-(2-((2-(dimethylamino)ethyl)(methyl)amino)-5-((5-fluoro-4-(1-methyl-1H-indol-3-yl)-7H-pyrrolo[2,3-d]pyrimidin-2-yl)amino)phenyl)acetamide], for which the 50% inhibitory concentration (IC50) is 0.0975 µM.

Staying with this test, now noted: KM12-Luc, 72 h, read-out: NTRK IC50 in KM12-luc.
For `CC(=O)Nc1cc(Nc2nc(-c3cn(C)c4cc(F)ccc34)c3cc[nH]c3n2)ccc1N(C)CCN(C)C` [Compound 232a, N-(2-((2-(dimethylamino)ethyl)(methyl)amino)-5-((4-(6-fluoro-1-methyl-1H-indol-3-yl)-7H-pyrrolo[2,3-d]pyrimidin-2-yl)amino)phenyl)acetamide], the IC50 is 0.0855 µM.

`CCNc1cc(Nc2nc(-c3cn(C)c4ccccc34)c3cc[nH]c3n2)ccc1N(CC)CCN(C)C` [Compound 212f, N^1-(2-(dimethylamino)ethyl)-N^1,N^2-diethyl-N^4-(4-(1-methyl-1H-indol-3-yl)-7H-pyrrolo[2,3-d]pyrimidin-2-yl)benzene-1,2,4-triamine]: the 50% inhibitory concentration (IC50) worked out at 0.546 µM.

`CCNc1cc(Nc2nc(-c3cn(C)c4cc(F)ccc34)c3cc[nH]c3n2)ccc1N(C)CCN(C)C` [Compound 232b, N^1-(2-(dimethylamino)ethyl)-N^2-ethyl-N^4-(4-(6-fluoro-1-methyl-1H-indol-3-yl)-7H-pyrrolo[2,3-d]pyrimidin-2-yl)-N^1-methylbenzene-1,2,4-triamine]: the IC50 is 0.492 µM.

Still in this test, the particulars now being: KM12-luc cells, treated with test compounds for 72 hrs, CCK-8 viability; read-out: NTRK IC50 in KM12-luc.
Regarding `COc1cccc2c(-c3nc(Nc4ccc(N5CC[C@@H](N(C)C)C5)c(N)c4)ncc3Cl)cn(C)c12` [Compound R-439, (R)—N^1-(5-chloro-4-(7-methoxy-1-methyl-1H-indol-3-yl)pyrimidin-2-yl)-4-(3-(dimethylamino)pyrrolidin-1-yl)benzene-1,3-diamine], the half-maximal inhibitory concentration (IC50) came out at 0.128 µM.

Turning to `COc1cccc2c(-c3nc(Nc4ccc(N5CC[C@@H](N(C)C)C5)c(N)c4)ncc3Cl)cn(C)c12` [Compound R-414, (R)—N^1-(5-chloro-4-(7-methoxy-1-methyl-1H-indol-3-yl)pyrimidin-2-yl)-4-(3-(dimethylamino)pyrrolidin-1-yl)benzene-1,3-diamine], the IC50 is 0.0124 µM.

The values above are taken from patent US20250136576A1, “Heterocyclic Compounds and Uses Thereof” (ACEA Therapeutics, Inc., priority 2021, published 2025).
